Results taken from PubChem BioAssay (NCI).
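Five concentrations, 48 hours, 96-well plates. The concentration for 50% growth inhibition is given as GI50. TGI marks complete inhibition of growth.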

Tests used:
Test in all cases: NCI-60 cell line screen, 48 h
HL-60(TB) leukemia = tested on: HL-60(TB) leukemia
U251 CNS = tested on: U251 CNS
RXF 393 renal = tested on: RXF 393 renal
MALME-3M melanoma = tested on: MALME-3M melanoma
BT-549 breast = tested on: BT-549 breast
OVCAR-3 ovarian = tested on: OVCAR-3 ovarian
SR leukemia = tested on: SR leukemia
SW-620 colon = tested on: SW-620 colon
TK-10 renal = tested on: TK-10 renal
HCC-2998 colon = tested on: HCC-2998 colon
NCI-H460 lung = tested on: NCI-H460 lung
T-47D breast = tested on: T-47D breast
KM12 colon = tested on: KM12 colon
OVCAR-5 ovarian = tested on: OVCAR-5 ovarian
OVCAR-4 ovarian = tested on: OVCAR-4 ovarian
NCI-H226 lung = tested on: NCI-H226 lung
UACC-257 melanoma = tested on: UACC-257 melanoma
MOLT-4 leukemia = tested on: MOLT-4 leukemia
COLO 205 colon = tested on: COLO 205 colon
K-562 leukemia = tested on: K-562 leukemia
OVCAR-8 ovarian = tested on: OVCAR-8 ovarian
HOP-92 NSCLC = tested on: HOP-92 NSCLC
786-0 renal = tested on: 786-0 renal
M14 melanoma = tested on: M14 melanoma
LOX IMVI melanoma = tested on: LOX IMVI melanoma
HCT-15 colon = tested on: HCT-15 colon
EKVX NSCLC = tested on: EKVX NSCLC
NCI/ADR-RES ovarian = tested on: NCI/ADR-RES ovarian
A549 NSCLC = tested on: A549 NSCLC
MCF7 breast = tested on: MCF7 breast
CAKI-1 renal = tested on: CAKI-1 renal
SK-MEL-2 melanoma = tested on: SK-MEL-2 melanoma
SNB-19 CNS = tested on: SNB-19 CNS
HCT-116 colon = tested on: HCT-116 colon
NCI-H522 lung = tested on: NCI-H522 lung
SK-MEL-28 melanoma = tested on: SK-MEL-28 melanoma
NCI-H23 lung = tested on: NCI-H23 lung
SNB-75 CNS = tested on: SNB-75 CNS
DU-145 prostate = tested on: DU-145 prostate
ACHN renal = tested on: ACHN renal
SF-295 CNS = tested on: SF-295 CNS
MDA-MB-435 = tested on: MDA-MB-435
MDA-MB-231 breast = tested on: MDA-MB-231 breast
UO-31 renal = tested on: UO-31 renal
SK-MEL-5 melanoma = tested on: SK-MEL-5 melanoma
SK-OV-3 ovarian = tested on: SK-OV-3 ovarian
RPMI-8226 leukemia = tested on: RPMI-8226 leukemia
CCRF-CEM leukemia = tested on: CCRF-CEM leukemia
SF-268 CNS = tested on: SF-268 CNS
SN12C renal = tested on: SN12C renal
SF-539 CNS = tested on: SF-539 CNS
HOP-62 NSCLC = tested on: HOP-62 NSCLC
HS 578T breast = tested on: HS 578T breast
IGROV1 ovarian = tested on: IGROV1 ovarian
PC-3 prostate = tested on: PC-3 prostate
UACC-62 melanoma = tested on: UACC-62 melanoma
HT29 colon = tested on: HT29 colon
A498 renal = tested on: A498 renal

## CCC1=C(C)/C(=C/c2[nH]c(C)c(C(=O)CCCCC(=O)OC)c2C)N=C1c1ccc[nH]1
HL-60(TB) leukemia
  GI50: 2.53 µM
  TGI: 9.28 µM
U251 CNS
  GI50: 12.6 µM
  TGI: 33.1 µM
RXF 393 renal
  GI50: 11.9 µM
  TGI: 38.6 µM
MALME-3M melanoma
  GI50: 13.7 µM
  TGI: 45.1 µM
BT-549 breast
  GI50: 3.8 µM
  TGI: > 41.3 µM
OVCAR-3 ovarian
  GI50: 3.64 µM
  TGI: 18.5 µM
SR leukemia
  GI50: 1.3 µM
  TGI: 5.49 µM
SW-620 colon
  GI50: 2.18 µM
  TGI: 4.82 µM
TK-10 renal
  GI50: 24.5 µM
  TGI: 71.1 µM
HCC-2998 colon
  GI50: 22.3 µM
  TGI: 54.1 µM
NCI-H460 lung
  GI50: 37.6 µM
  TGI: > 100 µM
T-47D breast
  GI50: 3.45 µM
  TGI: 13.8 µM
KM12 colon
  GI50: 16.6 µM
  TGI: > 77.4 µM
OVCAR-5 ovarian
  GI50: 21.1 µM
  TGI: > 67.2 µM
OVCAR-4 ovarian
  GI50: 3.47 µM
  TGI: 17.3 µM
NCI-H226 lung
  GI50: 17.6 µM
  TGI: 51.3 µM
UACC-257 melanoma
  GI50: 16.1 µM
  TGI: 44.2 µM
MOLT-4 leukemia
  GI50: 0.995 µM
  TGI: 6.92 µM
COLO 205 colon
  GI50: 12.6 µM
  TGI: > 100 µM
K-562 leukemia
  GI50: 3.47 µM
  TGI: 16.7 µM
OVCAR-8 ovarian
  GI50: 7.46 µM
  TGI: 42.6 µM
HOP-92 NSCLC
  GI50: 3.95 µM
  TGI: 15.4 µM
786-0 renal
  GI50: 15.1 µM
  TGI: 32 µM
M14 melanoma
  GI50: 18.7 µM
  TGI: 58.8 µM
LOX IMVI melanoma
  GI50: 2.89 µM
  TGI: > 32.3 µM
HCT-15 colon
  GI50: 15.4 µM
  TGI: 66.8 µM
EKVX NSCLC
  GI50: 12.2 µM
  TGI: 32 µM
NCI/ADR-RES ovarian
  GI50: 33.2 µM
  TGI: > 96.4 µM
A549 NSCLC
  GI50: 20.4 µM
  TGI: > 53.4 µM
MCF7 breast
  GI50: 12.1 µM
  TGI: 46.4 µM
CAKI-1 renal
  GI50: 20.6 µM
  TGI: 45.8 µM
SK-MEL-2 melanoma
  GI50: 19.4 µM
  TGI: 46.2 µM
SNB-19 CNS
  GI50: 15.1 µM
  TGI: 38.4 µM
HCT-116 colon
  GI50: 7.37 µM
  TGI: > 50.1 µM
NCI-H522 lung
  GI50: 2.36 µM
  TGI: 6.37 µM
SK-MEL-28 melanoma
  GI50: 7.25 µM
  TGI: 25.8 µM
NCI-H23 lung
  GI50: 17.3 µM
  TGI: 55.5 µM
SNB-75 CNS
  GI50: 12.2 µM
  TGI: 27 µM
DU-145 prostate
  GI50: 12.2 µM
  TGI: 24.6 µM
ACHN renal
  GI50: 15.3 µM
  TGI: 31.1 µM
SF-295 CNS
  GI50: 18.6 µM
  TGI: 42 µM
MDA-MB-435
  GI50: 10.4 µM
  TGI: 46.1 µM
MDA-MB-231 breast
  GI50: 4.6 µM
  TGI: 46.4 µM
UO-31 renal
  GI50: 8.78 µM
  TGI: 25.5 µM
SK-MEL-5 melanoma
  GI50: 7.8 µM
  TGI: 20.8 µM
SK-OV-3 ovarian
  GI50: 34.6 µM
  TGI: > 80.6 µM
RPMI-8226 leukemia
  GI50: 3.37 µM
  TGI: 13.9 µM
CCRF-CEM leukemia
  GI50: 0.204 µM
  TGI: 6.63 µM
SF-268 CNS
  GI50: 7.15 µM
  TGI: 47.7 µM
SN12C renal
  GI50: 22.2 µM
  TGI: > 100 µM
SF-539 CNS
  GI50: 13.2 µM
  TGI: 27.1 µM
HOP-62 NSCLC
  GI50: 13.9 µM
  TGI: 28.5 µM
HS 578T breast
  GI50: 14.7 µM
  TGI: 50.4 µM
IGROV1 ovarian
  GI50: 21.5 µM
  TGI: > 63.8 µM
PC-3 prostate
  GI50: 4.4 µM
  TGI: 18 µM
UACC-62 melanoma
  GI50: 8.7 µM
  TGI: 38.9 µM
HT29 colon
  GI50: 5.11 µM
  TGI: 38.4 µM
A498 renal
  GI50: 23.9 µM
  TGI: 59.5 µM
